# Laboratory results reported in patent US10000498B2, “Selective proton coupled folate transporter and folate receptor, and GARFTase inhibitor compounds and methods of using the same” (Duquesne University of the Holy Spirit, priority 2008, dated 2018).
# “Also recorded” adds a separate entry of the source. Where two headings read alike, the source gives them in different places.
# Key:
# [1] = tested on: PC43-10 cells (hRFC-expressing Chinese hamster ovary); assay: Growth inhibition of hRFC-expressing PC43-10 CHO cells; type: cell-based
# [2] = tested on: KB human tumor cells (hRFC/FRα); assay: Growth inhibition of KB human tumor cells (Cell Titer-blue cytotoxicity screen), with or without folic acid; type: cell-based; details: for IC50: Homo sapiens
# [3] = target: T1, GARFTase (Homo sapiens, UniProt P22102); assay: In situ GARFTase assay (14C-glycine incorporation into formyl glycinamide ribonucleotide); type: cell-based; details: mean IC50, SEM in parentheses
# T1 construct: In the in situ GARFTase assay, incorporation of ^14C-glycine into formyl glycinamide ribonucleotide was measured; endogenous in cells
# T1 sequence (P22102 1-1010): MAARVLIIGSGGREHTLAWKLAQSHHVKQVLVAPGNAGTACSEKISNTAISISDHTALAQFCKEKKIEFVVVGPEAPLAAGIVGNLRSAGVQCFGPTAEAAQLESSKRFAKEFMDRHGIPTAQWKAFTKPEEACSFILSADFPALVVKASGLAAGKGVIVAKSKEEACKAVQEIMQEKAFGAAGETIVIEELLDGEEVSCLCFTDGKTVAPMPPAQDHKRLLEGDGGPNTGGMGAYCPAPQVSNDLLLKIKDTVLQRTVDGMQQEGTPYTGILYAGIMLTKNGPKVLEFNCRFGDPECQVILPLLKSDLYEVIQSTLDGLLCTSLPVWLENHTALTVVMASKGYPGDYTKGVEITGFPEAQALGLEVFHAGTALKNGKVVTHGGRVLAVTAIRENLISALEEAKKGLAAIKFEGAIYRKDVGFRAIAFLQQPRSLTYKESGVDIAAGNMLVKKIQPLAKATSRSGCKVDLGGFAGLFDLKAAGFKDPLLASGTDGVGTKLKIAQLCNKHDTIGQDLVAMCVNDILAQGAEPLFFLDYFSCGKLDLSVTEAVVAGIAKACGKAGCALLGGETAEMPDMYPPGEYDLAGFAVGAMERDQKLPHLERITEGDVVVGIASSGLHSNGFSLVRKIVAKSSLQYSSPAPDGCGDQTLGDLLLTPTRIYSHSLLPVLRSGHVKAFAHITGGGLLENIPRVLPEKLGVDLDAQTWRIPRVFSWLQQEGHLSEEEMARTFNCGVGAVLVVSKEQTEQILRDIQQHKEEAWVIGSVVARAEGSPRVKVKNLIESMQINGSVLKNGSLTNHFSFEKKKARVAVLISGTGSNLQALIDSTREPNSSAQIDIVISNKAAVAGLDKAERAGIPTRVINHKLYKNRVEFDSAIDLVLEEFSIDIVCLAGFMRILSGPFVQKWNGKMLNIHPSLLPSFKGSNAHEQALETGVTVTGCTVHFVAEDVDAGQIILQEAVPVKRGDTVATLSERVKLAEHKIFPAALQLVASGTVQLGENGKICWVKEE
# [4] = target: T2, hRFC (Homo sapiens, UniProt P41440); assay: Inhibition of [3H]MTX uptake by RFC in PC43 cells; type: cell-based; details: pH 7.2-7.4; not shown
# T2 construct: expressed in transfected cells; host or cells: PC43-10 (CHO subline derived from RFC- and FR-null R2 cells)
# T2 sequence (P41440 1-591): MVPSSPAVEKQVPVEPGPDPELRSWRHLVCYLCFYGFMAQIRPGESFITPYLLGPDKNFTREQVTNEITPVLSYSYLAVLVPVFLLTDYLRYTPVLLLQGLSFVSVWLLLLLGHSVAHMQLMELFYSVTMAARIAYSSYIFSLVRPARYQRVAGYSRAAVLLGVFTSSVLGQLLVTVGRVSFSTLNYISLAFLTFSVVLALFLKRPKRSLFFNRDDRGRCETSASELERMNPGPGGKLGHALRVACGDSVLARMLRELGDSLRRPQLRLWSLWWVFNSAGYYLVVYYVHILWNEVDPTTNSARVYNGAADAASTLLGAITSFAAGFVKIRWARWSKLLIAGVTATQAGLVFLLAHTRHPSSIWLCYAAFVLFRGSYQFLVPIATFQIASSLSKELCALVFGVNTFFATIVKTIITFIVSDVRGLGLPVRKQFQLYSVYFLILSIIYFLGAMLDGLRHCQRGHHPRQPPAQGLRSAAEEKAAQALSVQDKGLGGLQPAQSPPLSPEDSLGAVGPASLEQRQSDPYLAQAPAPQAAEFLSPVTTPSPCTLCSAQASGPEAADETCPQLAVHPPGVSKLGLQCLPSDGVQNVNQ
# [5] = tested on: human KB cervical tumors as xenografts; assay: In vivo evaluation in advanced stage KB tumor xenograft; parameters: species or system SCID female mice
# Protocol: SCID female mice bearing advanced stage human KB cervical tumors as xenografts (xenograft tumors) were administered compound AAG154353 of the present invention intravenously at various doses and schedules.
# Mice were maintained on a Folic Acid deficient diet (Harlan-Teklad Diet #00434; Madison, Wis.) exclusively for approximately three weeks at the start of treatment. […] Thus, significant antitumor activity was detected. Toxicity as reflected in weight loss was modest.
# [6] = target: T3, hPCFT (Homo sapiens, UniProt Q96NT5); assay: Inhibition of [3H]MTX transport by hPCFT; type: cell-based; details: initial studies over a range of pH values
# T3 construct: expressed in transfected cells
# T3 sequence (Q96NT5 1-459): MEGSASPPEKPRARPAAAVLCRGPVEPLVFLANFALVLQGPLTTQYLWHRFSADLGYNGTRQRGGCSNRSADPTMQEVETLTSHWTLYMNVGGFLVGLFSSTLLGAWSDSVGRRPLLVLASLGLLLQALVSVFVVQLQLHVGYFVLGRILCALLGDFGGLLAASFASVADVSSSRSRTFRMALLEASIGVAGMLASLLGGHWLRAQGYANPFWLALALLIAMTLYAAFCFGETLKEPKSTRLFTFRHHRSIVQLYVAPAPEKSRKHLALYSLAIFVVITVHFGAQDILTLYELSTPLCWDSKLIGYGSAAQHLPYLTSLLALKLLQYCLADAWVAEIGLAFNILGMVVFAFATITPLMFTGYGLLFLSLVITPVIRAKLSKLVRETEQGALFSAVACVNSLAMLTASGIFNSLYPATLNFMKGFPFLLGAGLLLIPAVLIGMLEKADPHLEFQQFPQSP
# [7] = Q2dx4 starting day 43, 500 mg/kg total dose IV
smiles,measurement,setting,value
"Nc1nc2[nH]c(CCCCc3ccc(C(=O)N[C@@H](CCC(=O)O)C(=O)O)s3)cc2c(=O)[nH]1 [AAG154353, (S)-2-({5-[4-(2-amino-4-oxo-4,7-dihydro-3H-pyrrolo[2,3-d]pyrimidin-6-yl)-butyl]thiophene-2-carbonyl}-amino)-pentanedioic acid]",Growth inhibition of hRFC-expressing PC43-10 cells (in words),[1],Neither AAG154353 and AAG154360 showed appreciable growth inhibition; also recorded: nearly complete lack of drug activity
same,IC50,"[1]; Cricetulus griseus, PC43-10, read-out: Growth inhibition (IC50, nM) hRFC PC43-10",> 1000 nM
same,Effect of folic acid co-treatment on growth inhibition of KB cells,[2],completely reversed growth inhibition
same,IC50,"[2]; read-out: Growth inhibition (IC50, nM) hRFC/FRα KB",0.25 nM
same,IC50,"[2]; read-out: Growth inhibition (IC50, nM) hRFC/FRα KB (+FA)",> 1000 nM
same,IC50,[3],0.63 nM
same,Inhibition of [3H]MTX transport from hRFC in pC43-10 cells (in words),[4],negligible inhibition
same,Tumor response of late stage KB xenografts,"[5]; IV, three mice on various dose/schedules, tumors 446 to 650 mg at start, folic acid deficient diet",tumors regressed completely
same,Toxicity as reflected in weight loss,"[5]; IV, various dose/schedules",modest
same,Tumor size,[5]; [7],63 mg
same,Tumor-free status,[5]; [7],tumor free up to day 60
same,Time mouse tumor free,"[5]; Q3dx4 starting day 37, 750 mg/kg total dose IV",30 days
same,Time mouse tumor free,"[5]; Q4dx3 starting day 48, 187.5 mg/kg total dose IV",30 days
same,Increased inhibition of hPCFT transport at acid (pH<7) over neutral (pH>7) conditions,[6],2-3 fold
